The record followed here is US4098798A, “Adriamycins, process for their preparation and uses thereof” (Societa' Farmaceutici Italia S.p.A., priority 1974, dated 1978).

The structures appear in SMILES notation. Converted amounts (≈) assume the structure as drawn. Where two headings read alike, the source gives them in different places.

Data set [1] concerns B-subtilis. Kind of data set: inhibition zones on agar-B-subtilis plates, paper disc technique. As to conditions: hydrochlorides, read-out: inhibition zone diameter. The class given is cell-based.
Data set [2] relates to HeLa cells. Kind of data set: Cloning Efficiency of Hela cells in vitro. As to conditions: for IC50: Homo sapiens, HeLa, 50% inhibition of colonies. The class given is cell-based. As to the method:
After treatment for 2,8 or 24 hours, HeLa cells were seeded (200 cells per plate) and the number of colonies determined 8 days later.
The ID50 represents the dose which gives a 50% of inhibition of colonies.

Data set [3] deals with Ascites Sarcoma 180. As to the kind of experiment: Action on Ascites Sarcoma 180 in mice. The class given is in vivo, mice (Swiss CD 1). As to conditions: for Average Survival time: one day after inoculation, untreated = 100%. How it is done:
The tests were carried out on groups of 10 mice (Swiss CD 1). The compounds under examination were administered intraperitoneally in varying doses to the test animals one day after intraperitoneal inoculation with 1 × 10^6 tumor cells per animal. The average survival time is given in Table 1 as a percentage of the survival time of untreated animals, which is arbitrarily designated as 100%. Also given in Table 1 are the number of long term survivors.

Data set [4] is described as follows: cell proliferation in uninfected mouse embryo fibroblast cultures (cytotoxic action). The class given is cell-based. As to conditions: mouse embryo fibroblasts, treatment of 3 days, read-out: Cytotoxic Action ID50. How it is done: (§1) The test compounds were evaluated on mouse embryo fibroblast cultures infected with MSV and on similar uninfected cultures. After a treatment of 3 days, the inhibiting doses (ID50) were evaluated on cell proliferation in uninfected cultures (cytotoxic action) and on MSV foci formation in infected cultures (antiviral action).

The subject of data set [5] is MSV. Kind of data set: Activity on MSV Production, focus assay. The class given is cell-based, Moloney Sarcoma Virus. As to conditions: 0.05 γ/ml, 3 days; control 4.7 × 10^4. How it is done:
MSV infected cultures were treated for 3 days, and the virus yields were determined in the cell and supernatant medium by focus assay in the presence of leukemia virus.

Data set [6] relates to Moloney Sarcoma Virus (MSV). As to the kind of experiment: MSV foci formation in infected mouse embryo fibroblast cultures (antiviral action). The class given is cell-based. As to conditions: 72 h, treatment of 3 days, read-out: Antiviral Action ID50. How it is done:
as §1

As for `COc1cccc2c1C(=O)c1c(O)c3c(c(O)c1C2=O)C[C@@](O)(C(=O)CO)C[C@@H]3O[C@H]1C[C@H](N)[C@@H](O)[C@H](C)O1` [4'-Epi-adriamycin (α-anomer), 7-0-(3'-amino-2',3',6'-trideoxy-α-L-arabinohexopyranosyl)-adriamycinone], the zone of inhibition at 5 µg/disc in data set [1] (5 μg) came to 19 mm. In data set [1] (10 μg), the zone of inhibition at 10 µg/disc was 21 mm. Also, the zone of inhibition at 15 µg/disc in data set [1] (15 μg) was found to be 22 mm. In addition, in data set [1] (20 μg), the zone of inhibition at 20 µg/disc is 23 mm. Moreover, the IC50 in data set [2] (Table 7, 2h treatment, read-out: DI50 (the source's name)) worked out at 0.85 µg/mL (≈ 1.56 µM); in data set [2] (Table 7, 8h treatment, read-out: DI50 (the source's name)) it was 0.7 µg/mL (≈ 1.29 µM); in data set [2] (Table 7, 24h treatment, read-out: DI50 (the source's name)) it was 0.36 µg/mL (≈ 0.662 µM); in data set [2] (Table 8, 2h treatment, read-out: DI 50 (the source's name)) it was 5 µg/mL (≈ 9.2 µM); in data set [2] (Table 8, 8h treatment, read-out: DI 50 (the source's name)) it was 0.2 µg/mL (≈ 0.368 µM); in data set [2] (Table 8, 24h treatment, read-out: DI 50 (the source's name)), 0.2 µg/mL (≈ 0.368 µM). Also, the “Average Number of Colonies” value in data set [2] (Table 7, 0.1 μg/ml, 8h, control 125) worked out at 158; in data set [2] (Table 7, 0.1 μg/ml, 24h, control 223), 216; in data set [2] (Table 7, 0.25 μg/ml, 8h, control 125), 150; in data set [2] (Table 7, 0.25 μg/ml, 24h, control 223), 199; in data set [2] (Table 7, 0.5 μg/ml, 8h, control 125) it was 92; in data set [2] (Table 7, 0.5 μg/ml, 24h, control 223), 52. The “Average Number of Colonies” value in data set [2] (Table 7, 1 μg/ml, 2h, control 132) is reported as 57; in data set [2] (Table 7, 1 μg/ml, 8h, control 125) it was 36; in data set [2] (Table 7, 1 μg/ml, 24h, control 223), 29; in data set [2] (Table 8, 0.125 μg/ml, 2h, control 156), 245; in data set [2] (Table 8, 0.125 μg/ml, 8h, control 189) it was 170; in data set [2] (Table 8, 0.25 μg/ml, 8h, control 189), 43. Also, the “Average Number of Colonies” value in data set [2] (Table 8, 0.25 μg/ml, 24h, control 136) was 46; in data set [2] (Table 8, 0.5 μg/ml, 2h, control 156) it was 130; in data set [2] (Table 8, 0.5 μg/ml, 8h, control 189), 45; in data set [2] (Table 8, 0.5 μg/ml, 24h, control 136) it was 38; in data set [2] (Table 8, 1 μg/ml, 8h, control 189), 27; in data set [2] (Table 8, 1 μg/ml, 24h, control 136), 17. In addition, the “Long Term Survivors (after 60 days)” value in data set [3] (0.5 mg/Kg i.p.) is 0/10; in data set [3] (2 mg/Kg i.p.), 0/10; in data set [3] (10 mg/Kg i.p.) it was 1/8. The “Average Survival time” value in data set [3] (0.5 mg/Kg i.p.) was determined as 135%; in data set [3] (2 mg/Kg i.p.) it was 184%; in data set [3] (10 mg/Kg i.p.), 234%.
For the compound `COc1cccc2c1C(=O)c1c(O)c3c(c(O)c1C2=O)CC(O)(C(=O)CO)CC3OC1CC(N)C(O)C(C)O1` (stereo not drawn) [4'-Epi-adriamycin], the CC50 at 72 h in data set [4] is 0.01 µg/mL (≈ 0.0184 µM). The “virus yield (FFU/ml)” value in data set [5] is given as 4 × 10^2 FFU/ml. Also, the IC50 in data set [6] is over 0.006 µg/mL.
